What was measured:
[1] = tested on: contractile response of isolated guinea-pig ileum to angiotensin I; test: Inhibition of contractile response of isolated guinea-pig ileum to angiotensin I (bioassay of angiotensin-converting enzyme inhibitory activity); conditions: angiotensin I 0.1 μg/ml, Tyrode's solution 30° C., compound added 5 minutes before, read-out: Angiotensin I IC50: concentration of compound producing 50% inhibition of the contractive action of angiotensin I on the guinea-pig ileum
Description: As the method of measurement of angiotensin-converting enzyme activity, bioassay for the contractile response of isolated smooth muscle or the pressor response of normal animals and biochemical assay for the enzyme isolated from lung or other organs of animals are known. The former is found more advantageous than the latter for the examination of the convertion of angiotensin I to angiotensin II in vivo.
In the present study, therefore, we adopted the bioassay for contractile response of isolated guinea-pig ileum to angiotensin I.
(§1) Isolated guinea-pig ileum was suspended in the organ bath containing 20 ml of Tyrode's solution of 30° C. gassed with 95% O2 +5% CO2. The contraction induced by the addition of angiotensin I (0.1 μg/ml) at intervals of 10 minutes was recorded on a recticorder (Nihon Koden) for 90 seconds using FD pick up (ST-1T-H, Nihon Koden).
(§2) The test compounds were added to the bath 5 minutes before the addition of angiotensin I.
The inhibitory activity of angiotensin-converting enzyme was calculated by the following formula. [formula]

[2] = tested on: contractile response to bradykinin; test: Augmentation of contractile response of isolated guinea-pig ileum to bradykinin; conditions: bradykinin 0.005 μg/ml, compound added 5 minutes before, read-out: Bradykinin AC50: concentration of compound producing 50% augmentation of the contractive action of bradykinin on the guinea-pig ileum
Experimental: as §1, §2
From the fact that kininase II, which destroys bradykinin having contractile action of isolated guinea-pig ileum, is thought to be identical with angiotensin-converting enzyme, augmentation of the contractile response to bradykinin by test compounds was examined by using bradykinin (0.005 μg/ml) in place of angiotensin I according to the above mentioned method.

[3] = biological target: T1, angiotensin-converting enzyme (Oryctolagus cuniculus, UniProt P12822); test: Inhibitory activity of angiotensin-converting enzyme extracted from rabbit lung (spectrophotometry, HHL substrate); format: biochemical; conditions: 5 mM HHL, pH 8.3, 37° C., 30 minutes, read-out: Angiotensin-converting enzyme IC50: concentration of compound producing 50% inhibition against angiotensin-converting enzyme
T1 construct: extracted from rabbit lung; from tissue; host or cells: rabbit lung
T1 sequence (P12822 34-1310): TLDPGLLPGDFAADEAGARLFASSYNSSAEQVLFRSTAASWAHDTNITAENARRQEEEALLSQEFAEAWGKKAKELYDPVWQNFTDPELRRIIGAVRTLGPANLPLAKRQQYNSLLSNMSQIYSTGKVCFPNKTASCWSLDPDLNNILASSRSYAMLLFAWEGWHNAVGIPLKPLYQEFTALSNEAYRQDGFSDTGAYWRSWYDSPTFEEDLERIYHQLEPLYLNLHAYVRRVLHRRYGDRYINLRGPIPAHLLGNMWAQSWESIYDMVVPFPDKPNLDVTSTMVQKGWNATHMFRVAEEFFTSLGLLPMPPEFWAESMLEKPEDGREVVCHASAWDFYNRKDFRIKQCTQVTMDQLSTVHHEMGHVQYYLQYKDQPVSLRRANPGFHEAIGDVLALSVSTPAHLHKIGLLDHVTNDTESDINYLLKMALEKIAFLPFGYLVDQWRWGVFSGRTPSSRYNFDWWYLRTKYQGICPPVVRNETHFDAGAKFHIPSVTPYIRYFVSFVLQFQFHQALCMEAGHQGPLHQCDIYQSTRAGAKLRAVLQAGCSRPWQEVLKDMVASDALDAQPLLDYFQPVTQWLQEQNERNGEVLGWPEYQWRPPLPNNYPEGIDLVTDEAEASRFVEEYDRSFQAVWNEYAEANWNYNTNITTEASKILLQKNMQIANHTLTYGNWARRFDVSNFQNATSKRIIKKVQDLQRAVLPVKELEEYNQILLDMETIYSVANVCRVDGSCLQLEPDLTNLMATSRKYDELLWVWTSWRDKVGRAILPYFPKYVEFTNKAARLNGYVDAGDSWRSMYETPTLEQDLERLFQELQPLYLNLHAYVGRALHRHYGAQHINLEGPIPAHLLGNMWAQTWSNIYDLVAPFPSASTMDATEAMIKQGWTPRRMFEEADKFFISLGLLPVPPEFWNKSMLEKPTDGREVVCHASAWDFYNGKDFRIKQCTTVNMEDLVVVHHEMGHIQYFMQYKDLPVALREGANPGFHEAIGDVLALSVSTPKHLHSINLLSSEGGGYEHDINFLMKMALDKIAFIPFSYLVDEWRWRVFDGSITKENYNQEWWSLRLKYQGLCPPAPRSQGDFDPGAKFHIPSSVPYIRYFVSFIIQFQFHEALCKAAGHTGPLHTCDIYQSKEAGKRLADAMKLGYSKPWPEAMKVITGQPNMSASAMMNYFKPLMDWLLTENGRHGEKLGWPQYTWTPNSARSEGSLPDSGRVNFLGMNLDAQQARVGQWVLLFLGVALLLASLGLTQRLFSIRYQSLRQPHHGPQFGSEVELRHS
Experimental: The activity of angiotensin-converting enzyme was measured by spectrophotometry according to the method of Biochem. Pharmacol., 20. 1637 (1971). That is, the absorbance of hippuric acid was measured, which is liberated by incubating hippuryl-L-histidyl-L-leucine (HHL) as substrate in the presence of angiotensin-converting enzyme extracted from rabbit lung. The reaction mixture is as follows: 100 mM phosphate buffer (pH 8.3) 300 mM sodium chloride 5 mM HHL […] enzyme inhibitor 5 mU enzyme 0.25 ml of the above mixture was incubated at 37° C. for 30 minutes and the reaction was stopped by adding 0.25 ml of 1 N hydrochloric acid. […] The absorbance of this solution was measured at 228 nm.

Acute toxicity test = format: in vivo; conditions: mouse, in vivo, ip
Experimental: (§3) The male ddy-std strain mice (4 weeks of age, weighing 19-21 g) were placed in a breeding room of constant temperature and humidity (23±1° C., 55±5%) and fed freely pellet diet (CE-2, Clea Japan Inc.) and water ad. libitum for a week. The mice showing the normal growth were selected for the experiment.
(§4) Test compounds are suspended in 0.5% tragacanth solution, and administered intraperitoneally in a dose of 0.5 ml of 20 g body weight.

male ddy-std strain mice = test: Acute toxicity test; format: in vivo; conditions: male ddy-std mice, intraperitoneally
Experimental: as §3, §4

| SMILES | IC50 [1] | IC50 [3] | AC50 [2] | LD50 (Acute toxicity test) | Acute toxicity (result in words) (male ddy-std strain mice) |
| --- | --- | --- | --- | --- | --- |
| C[C@H](CS)C(=O)N1C(C(=O)O)CCC1c1ccccc1O (single isomer, unassigned) [Compound C] | 0.16 µM | 1.1 µM | 0.002 µM |  |  |
| O=C(O)C1CCC(c2ccccc2O)N1C(=O)CCS (stereo not drawn) [Compound A, α-5-(2-hydroxyphenyl)-1-(3-mercaptopropanoyl)-2-pyrrolidinecarboxylic acid] | 0.17 µM | 0.56 µM | 0.0018 µM | 1000 to 1250 mg/kg | low |
| O=C(O)C1CCC(c2ccc(O)cc2)N1C(=O)CCS (stereo not drawn) [Compound B, α-5-(4-hydroxyphenyl)-1-(3-mercaptopropanoyl)-2-pyrrolidinecarboxylic acid] | 0.48 µM | 0.44 µM | 0.0098 µM |  |  |
| O=C(O)C1CCC(c2ccccc2O)N1C(=O)CCS (stereo not drawn) [Compound E, α1-5-(2-hydroxyphenyl)-1-(3-mercaptopropanoyl)-2-pyrrolidinecarboxylic acid] | 0.076 µM | 0.065 µM | 0.00095 µM |  |  |

Second part, led by results:

| IC50 [1] | IC50 [3] | SMILES | AC50 [2] | LD50 (Acute toxicity test) | Acute toxicity (result in words) (male ddy-std strain mice) |
| --- | --- | --- | --- | --- | --- |
| 0.15 µM | 1.2 µM | C[C@H](CS)C(=O)N1C(C(=O)O)CCC1c1ccccc1O (single isomer, unassigned) [Compound D] | 0.0026 µM |  |  |
| 0.17 µM |  | C[C@H](CS)C(=O)N1CSC[C@H]1C(=O)O [Compound Z, (4R)-3-[(2S)-3-mercapto-2-methylpropanoyl]-4-thiazolidinecarboxylic acid, reference compound] | 0.0026 µM |  |  |
